Laboratory results published in patent US20250025438A1, “Derivative of aspartic acid and use thereof in treatment of metabolic diseases such as hepatic fibrosis and non-alcoholic hepatitis” (SHENZHEN JINGTAI TECHNOLOGY CO., LTD., priority 2021, published 2025).
Structures can show the parent of a compound that is named as a salt.

Tests used:
[1] = system: carbon tetrachloride-induced liver fibrosis; assay: Carbon tetrachloride-induced liver fibrosis model in mice, Masson staining; assay type: in vivo, C57BL/6 wild-type mice; conditions: CCl4 mice
Protocol: Long-term intraperitoneal injection of carbon tetrachloride (CCl4) induced reversible liver fibrosis, which was often used to screen and evaluate anti-hepatic fibrosis drugs. C57BL/6 wild-type mice were randomly divided into control group, carbon tetrachloride group and treatment group. The treatments were as follows:
Mice in the carbon tetrachloride group: The animals were intraperitoneally injected with carbon tetrachloride in a total amount of 0.5 μL/g, diluted with corn oil to 10 μL/g, 3 times/week. After 4 weeks of modeling, the carbon tetrachloride group was randomly divided into groups, plus the negative control group: • (1) Mice in the negative control group: The animals were intraperitoneally injected with corn oil solution, 10 μL/g, 3 times/week; at the same time, 200 μL of drinking water was administered by gavage. • (2) Mice in the carbon tetrachloride group: The animals were intraperitoneally injected with carbon tetrachloride in a total amount of 0.5 μL/g, diluted with corn oil to 10 μL/g, 3 times/week; 200 μL of normal saline was administered by gavage. • (3) Mice in the aspartic acid group: The animals were intraperitoneally injected with carbon tetrachloride in a total amount of 0.5 μL/g, diluted with corn oil to 10 μL/g, 3 times/week; 30 mg/kg aspartic acid was administered by gavage. • (4) Mice in the treatment group: The animals were intraperitoneally injected with carbon tetrachloride in a total amount of 0.5 μL/g, diluted with corn oil to 10 μL/g, 3 times/week; different doses of the compounds of the present invention were administered by gavage.
The animals were treated for 4 weeks, and blood was collected from the eyeballs 48 hours after the last injection of carbon tetrachloride. About 1 mL of whole blood per animal was collected in an anticoagulant tube, and immediately placed on ice and allowed to stand for 1 hour. Centrifugation was performed at 4° C., 3000 rpm for 15 min. About 0.4 mL of the supernatant was taken and added into an EP tube, in which it should be carefully avoided to pipet the lower layer liquid, and then it was stored in a −80° C. refrigerator.
It should be noted to use new paraffin when renewed; • (5 Embedding: Melted paraffin (60° C.) was added into a small iron trough, the paraffin-soaked tissue was taken and placed therein, the embedding box at the side with label was buckled, and the melted paraffin was added again. It should be noted that air bubbles should be removed during the operation process; • (6 The paraffin-embedded tissue was placed on an ice table of an automatic embedding machine. After the paraffin solidified, it was placed in a −20° C. refrigerator for further cooling.
• (1 The wax block with embedded tissue was placed at the corresponding position of a microtome; • (2 The slice thickness was adjusted to the thickness required for the experiment. Generally, 3 to 4 μm should be used for slicing; • (3 6 to 8 Consecutive tissue sections were gently placed and fully stretched in a 55° C. water bath expander; • (4 The continuous tissue sections were gently separated by tweezers; • (5 A wax section that was completely stretched and had no wrinkles in the tissue was selected, and taken out with an adhesive slide so that the section was attached to the slide;
Masson staining is one of the classic and authoritative staining methods for collagen fiber staining. Collagen fibers appear […].

TNF-α = assay: In vitro efficacy in semi-activated LX2 cells, qPCR: TNF-α; assay type: cell-based; conditions: Homo sapiens, LX-2, 48 hours, Q-PCR, read-out: TNF-α mRNA inhibition rate
[2] = 20 mg/kg/d by gavage, 4 weeks, vs untreated group and aspartic acid group (30 mg/kg/d), FIG. 6

Question: Which “collagen deposition in the mouse liver tissue (Masson)” value (from here on “collagen deposition”) [1, 2] does the source give for `N[C@@H](CCC(=O)O)C(=O)O` [Compound 47] here?
Answer: The value was “reduced”.

Question: What about the inhibition at 50 µM (TNF-α) of the same molecule?
Answer: Its inhibition at 50 µM is 10 to 25%.

Question: Which “collagen deposition” value [1, 2] does the source give for `COC(=O)[C@@H](N)CC(=O)O` [Compound 4] here?
Answer: Its value is “reduced”.

Question: What about the inhibition at 50 µM (TNF-α) of the same molecule?
Answer: Its inhibition at 50 µM is 25 to 50%.

Question: How did the “collagen deposition” value ([1]; 10 mg/kg/bid, 50 mg/kg/bid, 150 mg/kg/bid, vs untreated group, FIG. 7) turn out when `COC(=O)C[C@H](N)C(=O)O` [Compound 6] was run?
Answer: The value was “decreased”.

Question: And the “collagen deposition” value ([1]; 25 mg/kg/d by gavage, 4 weeks, vs untreated group and aspartic acid group (30 mg/kg/d), FIG. 6)?
Answer: The value was “reduced”.

Question: And the inhibition at 50 µM (TNF-α)?
Answer: The inhibition at 50 µM was 10 to 25%.

Question: For `COC(=O)C[C@H](N)C(=O)OCOC(=O)[C@@H](N)CC(=O)OC` [Compound 54, 4-dimethyl O′1,01-methylene (2S,2'S)-bis (2-aminosuccinate) hydrochloride], which “collagen deposition” value ([1]; 40 mg/kg/d by gavage, 4 weeks, vs untreated group and aspartic acid group (30 mg/kg/d), FIG. 6) is on record?
Answer: The value was “reduced”.

Question: And the inhibition at 50 µM (TNF-α)?
Answer: The inhibition at 50 µM was 1 to 10%.
